ChEMBL document CHEMBL1154198, “Chemical genetics of Plasmodium falciparum” (Nature, 2010)

Columns and labels:
Plasmodium falciparum [1] = assay: ST_JUDE: Plasmodium falciparum 3D7 EC50 (uM) as measured by SYBR green dye; type: functional, organism-based
Plasmodium falciparum [2] = assay: ST_JUDE: Plasmodium falciparum K1 EC50 (uM) as measured by SYBR green dye; type: functional, organism-based

Row | Compound | EC50 (Plasmodium falciparum [1]) | EC50 (Plasmodium falciparum [2])
1 | CCC(C)c1ccc(O)c(NC(=O)c2cncc(Br)c2)c1 (configuration not stated) | 2.15 µM | 1.59 µM
2 | COc1ccc(C2C(C(=O)Nc3cc(C)ccc3OC)c3ccccc3C(=O)N2C)cc1 (configuration not stated) | 2.1 µM | 3.73 µM
3 | COc1cc2c(cc1OC)C(C(=O)Nc1ccc(C(F)(F)F)cc1)C(c1cccs1)N(C)C2=O (configuration not stated) | 2.34 µM | 3.05 µM
4 | COc1cccc(C(=O)NC(c2ccc(Cl)cc2)c2cc(Cl)c3cccnc3c2O)c1 (configuration not stated) | 2.01 µM | 1.66 µM
5 | CCc1ccc(S(=O)(=O)Nc2ccc(Nc3nc(C)cc(Nc4ccc(OC)cc4)n3)cc2)cc1 | 0.577 µM | 9.28 µM
6 | CCCCN(CC)CCNC(=O)c1cc2cc3ccc(C)cc3nc2o1 | > 15 µM | 4.09 µM
7 | Cc1cc(O)nc2nnc(SCC(=O)Nc3cccc(Cl)c3)n12 | > 15 µM | 7.29 µM
8 | COc1ccc(S(=O)(=O)Nc2cc3sc(=O)oc3c3ccccc23)cc1 | > 15 µM | > 15 µM
9 | CCCCOc1ccc(C(=O)Nc2ccccc2Oc2ccccc2)cc1 | > 15 µM | 1.75 µM
10 | O=C(Nc1ccc(Cl)cc1)Nc1ccc(F)c(Cl)c1 | 3.72 µM | 3.57 µM
11 | Cc1ccc(Nc2cc(C)nc(Nc3ccc(NS(=O)(=O)c4ccc(C)cc4)cc3)n2)cc1 | 0.621 µM | 7.97 µM
12 | Cc1ccc(N2C(=O)CS(=O)(=O)C23C(=O)N(Cc2ccccc2Cl)c2ccccc23)cc1C (configuration not stated) | 1.33 µM | 2.43 µM
13 | Oc1c(C(c2ccc(Cl)cc2)N2CCOCC2)ccc2cccnc12 (configuration not stated) | 2.19 µM | 2.97 µM
14 | C#CCN(CC=C)Cc1nc(-c2cc(OC)ccc2OC)oc1C | > 15 µM | > 15 µM
15 | CCCCCCCOC(=O)c1[nH]c2c(c1C)C(=O)CC(c1ccco1)C2 (configuration not stated) | 2.01 µM | 1.19 µM
16 | COc1ccc(CN2CCNC(=O)C2CC(=O)NCCOC(C)C)c(OC)c1 (configuration not stated) | > 15 µM | > 15 µM
17 | CCN1CCN(c2cc(C)c3cc(NC(=S)NCCCN4CCN(c5cccc(Cl)c5)CC4)ccc3n2)CC1 | 2.24 µM | 4.24 µM
18 | COCc1cc(CN2CCN(c3ccccc3OC)CC2)c(O)c2ncccc12 | 4.19 µM | 9.06 µM
19 | CCN(CC)CCCNC(=O)C1CCN(c2nc3c(C)cc(C)cc3s2)CC1 | > 15 µM | > 15 µM
20 | COc1ccccc1/N=C1\C=C(NS(=O)(=O)c2ccc(Cl)cc2)c2ccccc2C1=O | 0.268 µM | 0.267 µM
21 | Cc1cc(N2CCCC2)nc(Nc2ccc(NS(=O)(=O)c3ccc(Cl)cc3)cc2)n1 | 2.12 µM | > 15 µM
22 | CCOc1ccc(-c2nonc2NC(=O)c2ccc(C)cc2)cc1OCC | > 15 µM | > 15 µM
23 | O=C(Nc1cccc(C2=NCCN2)c1)Nc1cccc(C2=NCCN2)c1 | 1.89 µM | 0.23 µM

Row | Compound | EC50 (Plasmodium falciparum [1]) | EC50 (Plasmodium falciparum [2])
24 | COc1ccc(NC(=O)C2c3ccccc3C(=O)N(C)C2c2cccs2)cc1Cl (configuration not stated) | 1.07 µM | 1.35 µM
25 | Cc1ccc(C(=O)Nc2ccc3c(c2)N(S(=O)(=O)c2ccc(F)cc2)CCC3)cc1 | > 15 µM | > 15 µM
26 | CCOc1cc(Br)c(C2C(C#N)=C(N)Oc3cc(O)ccc32)cc1OCC (configuration not stated) | 3.8 µM | 1.52 µM
27 | CC1CCN(C(=O)c2cc(COc3ccc(F)cc3F)on2)CC1 | > 15 µM | > 15 µM
28 | CC(=O)Oc1ccccc1C(=O)Nc1cccc(C(F)(F)F)c1 | 2.72 µM | 2.66 µM
29 | O=[N+]([O-])c1nonc1NCn1nnc2ccccc21 | 5.07 µM | 7.28 µM
30 | Cn1c(=O)oc2cc(S(=O)(=O)N3CCCC(C(=O)N4CCN(C(c5ccccc5)c5ccccc5)CC4)C3)ccc21 (configuration not stated) | 3.56 µM | 1.61 µM
31 | CCCCOc1cccc(C(=O)Nc2ccc(CN3CCCCC3)cc2)c1 | > 15 µM | > 15 µM
32 | CCCCN(C)C(=O)C1c2ccccc2C(=O)N(CC(C)C)C1c1cccs1 (configuration not stated) | 1.52 µM | 1.74 µM
33 | CCCCc1ccc(NC(=S)NN2CCN(C)CC2)cc1 | > 15 µM | > 15 µM
34 | CCN1CCN(c2cc(C)c3cc(NC(=S)NCc4cc(OC)ccc4OC)ccc3n2)CC1 | 3.07 µM | 9.01 µM
35 | CCOC(=O)C1=CN(Cc2ccc(F)cc2)C=C(C(=O)OCC)C1c1cc(OC)c(OC)c(OC)c1 | > 15 µM | 0.521 µM
36 | Cc1cc(C)c2sc(NNC(=O)c3ccc(S(=O)(=O)N(C)C)cc3)nc2c1 | 5.94 µM | 4.89 µM
37 | Cc1cc(Nc2ccc(C(C)C)cc2)n2ncnc2n1 | 0.502 µM | 0.961 µM
38 | O=[N+]([O-])c1ccc(C2N(Cc3ccccc3)CCN2Cc2ccccc2)cc1 | > 15 µM | > 15 µM
39 | CCc1cc(-c2[nH]nc(C)c2Oc2ccccc2)c(O)cc1OC(C)C | 3.66 µM | 1.46 µM
40 | COc1cc(-c2nc(-c3ccccc3)c(-c3ccccc3)[nH]2)cc(OC)c1OC | > 15 µM | > 15 µM
41 | C=CCN1C(=S)NC2c3cc(Br)ccc3OC1(C)C2C (configuration not stated) | 2.58 µM | 3.1 µM
42 | O=C1CC(c2ccc([N+](=O)[O-])cc2)C2=C(CC(c3cccs3)CC2=O)N1 (configuration not stated) | 4.89 µM | 2.74 µM
43 | O=C(NC(c1ccc([N+](=O)[O-])cc1)c1cc(Cl)c2cccnc2c1O)c1cccnc1 (configuration not stated) | 2.51 µM | 1.52 µM
44 | Cc1n(CC(O)COc2cccc(Cl)c2)c2ccccc2[n+]1C (configuration not stated) | > 15 µM | > 15 µM
45 | Cc1c(C)n(CC(O)CNC2CCCCC2C)c2ccccc12 (configuration not stated) | 0.527 µM | 0.35 µM
46 | CCOC(=O)c1ccc(NC(=O)Cc2csc(NC(=O)Nc3ccccc3)n2)cc1 | > 15 µM | > 15 µM

Now from value to molecule:

Row | EC50 (Plasmodium falciparum [1]) | EC50 (Plasmodium falciparum [2]) | Compound
47 | > 15 µM | > 15 µM | CCCCC(=O)NC(c1cccs1)c1cc(Cl)c2cccnc2c1O (configuration not stated)
48 | > 15 µM | > 15 µM | Cc1cc(/C=N/n2cnnc2)c(C)n1-c1ccc(Br)cc1
49 | 3.2 µM | 3.18 µM | CCO/C(O)=C1\C(C)=NC2=C(C(=O)CC(c3ccc(OC)c(OC)c3)C2)C1c1ccc(SC)cc1 (configuration not stated)
50 | > 15 µM | > 15 µM | CC(=O)CCc1ccc(OCCN2CCOCC2)cc1
51 | 0.919 µM | 7.18 µM | Cc1ccc(S(=O)(=O)Nc2ccc(Nc3nc(C)cc(N4CCCC4)n3)cc2)cc1
52 | > 15 µM | > 15 µM | COC(=O)c1sc2ccccc2c1NC(=O)c1cccc(Br)c1
53 | 3.01 µM | 1.76 µM | CCOc1cc2c(cc1OCC)C(c1cc(Cl)c(O)c(OCC)c1)NCC2 (configuration not stated)
54 | 7.02 µM | 4 µM | CC(C(=O)c1ccc(-c2ccccc2)cc1)[n+]1ccccc1 (configuration not stated)
55 | 0.0619 µM | 0.0832 µM | CCOc1ccc(-c2nonc2NC(=O)c2cccc(C)c2)cc1OCC
56 | > 15 µM | > 15 µM | O=C(c1ccco1)N(Cc1ccccc1)c1cccc([N+](=O)[O-])c1
57 | > 15 µM | 1.69 µM | Cc1ccc(/C(O)=C/C=N/c2cc([N+](=O)[O-])ccc2O)cc1
58 | > 15 µM | > 15 µM | Cc1cccc(-c2c3c(=O)n(C)c(=O)n(C)c3cn2-c2cc(Cl)ccc2O)c1
59 | > 15 µM | > 15 µM | Cc1ccc(CN2CCN(C3CCCCC3)C(CCO)C2)cc1C (configuration not stated)
60 | 2.53 µM | 3.09 µM | CCOC(=O)c1cnc2c(C(F)(F)F)cccc2c1Nc1cc(C)ccc1O
61 | > 15 µM | > 15 µM | Cc1ccc(CN2CCN(c3nc4c(c(=O)[nH]c(=O)n4C)n3Cc3ccc(C)cc3)CC2)cc1
62 | 4.53 µM | 2.05 µM | O=C(Nc1nc(-c2ccccn2)cs1)c1ccccc1Br
63 | 3.23 µM | 0.678 µM | CCOC(=O)c1ccc(NC2=C(n3nnc4ccccc43)C(=O)c3ccccc3C2=O)cc1
64 | 1.03 µM | 1.5 µM | CCN(CC)CCNC(=O)c1ccc2c(c1)sc1nc(-c3ccccc3)cn12
65 | 4.9 µM | 4.27 µM | N=C(N)N/N=C/c1ccc(OCc2ccc(Cl)cc2Cl)cc1
66 | 4.8 µM | > 15 µM | CCC1(C)CC(CCN)(c2ccc(C)cc2)CCO1 (configuration not stated)

Row | EC50 (Plasmodium falciparum [1]) | EC50 (Plasmodium falciparum [2]) | Compound
67 | 1.33 µM | 3.91 µM | Cc1ccc(Nc2nc(N)c3ccccc3n2)cc1C
68 | 1.32 µM | 1.22 µM | Cc1cccc(NC(=O)Nc2ccc(S(=O)(=O)C(F)(F)F)cc2)c1C
69 | > 15 µM | 4.85 µM | CCc1ccc(C2C3=C(O)CC(C)(C)CC3=Nc3cc(OC)c(OC)c(OC)c32)cc1 (configuration not stated)
70 | 2.38 µM | 1.76 µM | CCCCOCCCN1C(=O)CSC1c1cnccc1-c1ccc(Br)cc1 (configuration not stated)
71 | > 15 µM | > 15 µM | COc1ccc(-c2nnc3c4ccccc4c(C)nn23)cc1S(=O)(=O)N1CCCCC1
72 | 1.31 µM | 7.39 µM | COc1ccc(Nc2nc(NCc3ccccc3)c3ccccc3n2)cc1
73 | 3.97 µM | 11.8 µM | COc1ccccc1Nc1nc(NCc2ccccc2)c2ccccc2n1
74 | 4.03 µM | 3.44 µM | CCOc1c(Br)cc(C2C(C(=O)OC)=CN(C(C)C)C=C2C(=O)OC)cc1OC
75 | 8.23 µM | > 15 µM | CC(C)CC(C)N1CCC(n2nccc2NC(=O)Nc2ccccc2Cl)CC1 (configuration not stated)
76 | 0.506 µM | 4.06 µM | CCCCNC(=O)CSCc1cnn(-c2ccccc2)c1-n1cccc1
77 | > 15 µM | > 15 µM | COc1ccc(CC(=O)N2CC(=O)Nc3ccc(Cl)cc3C2c2ccc(F)cc2)cc1 (configuration not stated)
78 | 2.04 µM | 6.14 µM | COc1ccc(-c2cn3c(n2)sc2cc(C(=O)NCCCN4CCN(C)CC4)ccc23)cc1
79 | 0.153 µM | 0.395 µM | O=C1C(Nc2ccc(I)cc2)=C(N2CCCCC2)C(=O)c2ccccc21
80 | > 15 µM | > 15 µM | COc1ccc2c(c1OC)C(=O)N1c3ccccc3N=C(c3ccc([N+](=O)[O-])cc3)CC21 (configuration not stated)
81 | > 15 µM | > 15 µM | Oc1c(C(Nc2ccccn2)c2c(F)cccc2Cl)cc(Cl)c2cccnc12 (configuration not stated)
82 | 1.12 µM | 0.479 µM | CCCN1CC=C2C(C#N)=C(N)C(C#N)(C#N)C(c3ccccc3C(F)(F)F)C2C1 (configuration not stated)
83 | 1.42 µM | 2.7 µM | CCOC(=O)c1cccc(NC(=O)CC2C(=O)N(c3ccc(Cl)cc3)C(=O)N2C2CCCC2)c1 (configuration not stated)
84 | > 15 µM | > 15 µM | CCc1ccccc1NC(=O)c1csc2c1CCC(C)C2 (configuration not stated)
85 | 4.26 µM | > 15 µM | C=C(C)CCC(C)N1CCC(N2CCC(C(=O)NCCc3ccccc3)CC2)CC1 (configuration not stated)
86 | 2.17 µM | 1.08 µM | CCN(CC)CC(O)COc1ccccc1C(=O)CCc1ccccc1 (configuration not stated)
